According to publication PMC11345829, “Discovery of Potent Isoquinolinequinone N-Oxides to Overcome Cancer Multidrug Resistance” (Journal of Medicinal Chemistry, 2024):

Experiments:
[1] = system: NCI60 tumor cell line panel; design: method as in PMID 31894828; details: against 53 human tumor cell lines; cited from earlier work
[2] = system: NCI60 tumor cell line panel; experiment: NCI60 one-dose screen (10 μM), mean growth; type: cell-based, human; details: 48 h, one dose 10 μM, mean cell growth of 60 tumor cell lines; for activity at 10 µM: Homo sapiens
Description: S2.1 NCI Screening Assay Experimental details
NCI Screening Assay Experimental: Cancer cell growth assays (NCI60 screening) 5,6 One-dose study: Tested compounds were initially solubilised in DMSO, diluted into RPMI 1640 and 5% fetal bovine serum/L-glutamine, and added to 96-well plates containing cell lines previously cultured for 24 h. After 48 h incubation, the media were removed, and the cells were fixed and stained with sulforhodamine B to determine overall percent growth/ total protein content. Unbound dye was removed with five washes of 1% acetic acid, and the plates were allowed to air dry. The dye was then resolubilised in Tris buffer, and the colorimetric absorbance was measured (515 nm). Growth inhibition was measured relative to the response generated from proliferating cells cultured under identical conditions for 48 h. […]

NCI-H460 cells [3] = experiment: Cell cycle profile, PI staining flow cytometry; type: cell-based, human; details: 48 h; for cell cycle profile: 25 at 0.35 and 0.7 μM, doxorubicin 50 nM
Description: The effect of 25 on the cell cycle profile of NCI-H460 cells was assessed.
Figure 8 Effect of compound 25 on the cell cycle profile of NCI-H460 cells, analyzed by flow cytometry (PI staining). […] (A) Frequency (%) of cell cycle phases for each condition. (B) Representative cell cycle histograms. Results are the mean ± SEM from at least 3 independent experiments. * p ≤ 0.05, when comparing DMSO vs compound treatment.
Collected cells were then fixed in ice-cold 70% ethanol (Fisher Scientific) overnight. Cells were then centrifuged again and resuspended in 5 μg/mL of PI (Merck Life Science) and 0.1 mg/mL RNase A (Invitrogen) in PBS, and kept in the dark for at least 30 min. Cellular DNA content was analyzed using the BD Accuri C6 Flow cytometer. At least 10 000 events per sample were acquired. FlowJo 7.6.5 software (Tree Star, Inc., Ashland, Oregon, USA) was used to determine the % of cells in the different phases of the cell cycle.

NCI-H460 spheroids = experiment: Cell Titer-Glo 3D spheroid viability assay; type: cell-based, human; details: 48 h; 25 at 0.35 and 0.7 μM; doxorubicin 50 nM
From the text: Figure 12 Effect of compound 25 on the viability of spheroids established from two counterpart pairs of sensitive and MDR cell lines, from NSCLC (NCI-H460 and NCI-H460/R) and colorectal cancer (DLD1 and DLD1-TxR), using MicroTissue 3D Petri dishes. […] (B) Effect of compound 25 on the viability of NCI-H460 spheroids analyzed by Cell Titer-Glo 3D viability assay. (C) Effect of compound 25 on the viability of NCI-H460/R spheroids analyzed with the Cell Titer-Glo 3D viability assay. Results are presented as the % of luciferase luminescence relative to the “blank” cells (medium). […] (E) Effect of compound 25 on the viability of DLD1 spheroids analyzed by Cell Titer-Glo 3D viability assay. (F) Effect of compound 25 on the viability of DLD1-TxR spheroids analyzed with the Cell Titer-Glo 3D viability assay. Data are expressed as mean ± SEM from 3 independent experiments. * p ≤ 0.05 and ** p ≤ 0.01, when comparing DMSO vs compound treatment.
Spheroid formation was conducted in 12-series agarose 3D Petri Dish micromolds (MicroTissues Technology, MicroTissues Inc., Sigma-Aldrich). The agarose micromolds were prepared using 1% agarose in a 0.9% NaCl solution and then placed in 12-well plates and equilibrated with RPMI supplemented with 10% FBS for at least 2 h before cell seeding. Cell suspensions corresponding to 500 cells per spheroid of the NSCLC cell lines (NCI-H460 and NCI-H460/R), and 1000 cells per spheroid of the colorectal cancer cell lines (DLD1 and DLD1-TxR) were seeded in the corresponding micromolds. The choice of cell seeding concentration was based on a previous optimization assay (data not shown), ensuring that at the end of the assay the spheroids would have a size of around 400 μm. A 20 min incubation period was used for cells to settle into the micromolds and additional medium was finally added to the wells. Spheroid formation was monitored with the Leica DMi1 microscope. […] At the end of the treatment, images from at least 8 different spheroids per condition were captured on the Leica Dmi1 microscope, and posteriorly analyzed with the automated open-source software AnaSP.[82] Spheroid parameters, such as equivalent diameter, circularity, and compactness, were calculated.
Spheroid viability was determined through the luminescence-based Cell Titer-Glo 3D cell viability assay (Promega). Spheroids grown on MicroTissues 3D Petri Dish micromolds were exposed to the treatments, as described in the previous section. Then, the spheroids were transferred into 96-well plates in 50 μL of RPMI medium. […] The plate was then incubated in the dark for 5 min with agitation and allowed to rest for 25 min before luminescence measurement. Luminescence was quantified using the microplate reader Synergy MX coupled with the GEN5 software. […]

NCI-H460 cells [4] = experiment: BrdU incorporation assay (cell proliferation); type: cell-based, human; details: 48 h; 25 at 0.35 and 0.7 μM; doxorubicin 50 nM
Description: To assess the impact of compound 25 on cell proliferation, the bromodeoxyuridine (BrdU) incorporation assay was performed.
Figure 7 Effect of compound 25 on the % of proliferating NCI-H460 cells, determined with the BrdU assay. […] (A) Percentage of BrdU-incorporating cells under different treatments. Results are the mean ± SEM from at least 3 independent experiments. * p ≤ 0.05, ** p ≤ 0.01, when comparing DMSO vs compound treatment.
At 4 h before the end of this treatment, cells were incubated with 1 μM of BrdU (Merck Life Science). After collection of cells, they were fixed with paraformaldehyde 4% (Merck Life Science) for 40 min at room temperature (RT). Then, cells were subjected to a cytospin (500 rpm for 5 min), and cellular DNA was denaturated using 2 M of HCl (Merck Life Science) for 20 min. Cells were incubated with a PBS solution containing 0.5% Tween (Promega, Madison, Wisconsin, USA) and 0.05% bovine serum albumin (BSA; Merck Life Science). The cells were further incubated with a primary monoclonal mouse anti-BrdU Clone Bu20a antibody (1:10; Dako, Glostrup, Denmark) for 1 h, followed by incubation with a polyclonal rabbit antimouse immunoglobulins/FITC secondary antibody (1:100; Dako) for 30 min at RT. […] The cells were counted using the ImageJ 2.1.0 software.

Structure (SMILES) | activity at 10 µM [2] [%] | mean growth (%, 10 μM) [2] [%] | other results
COC(=O)c1c2c(c(C)[n+]([O-])c1C)C(=O)C=C(NCc1ccccc1)C2=O [Compound 2] | – | – | GI50 [1]: 910 nM
COC(=O)c1c2c(c(C)[n+]([O-])c1C)C(=O)C(NCc1ccc(F)cc1)=CC2=O [Compound 4] | 18 | – | –
COC(=O)c1c2c(c(C)[n+]([O-])c1C)C(=O)C=C(NCc1ccc(F)cc1)C2=O [Compound 5] | -37 | -37 | –
COC(=O)c1c2c(c(C)[n+]([O-])c1C)C(=O)C(NCc1ccc(O)cc1)=CC2=O [Compound 20] | -21 | -21 | –
COC(=O)c1c2c(c[n+]([O-])c1C)C(=O)C=CC2=O [Compound 23] | 44.5 | – | –
COC(=O)c1c2c(c[n+]([O-])c1C)C(=O)C(NCc1ccccc1)=CC2=O [Compound 24] | -35.1 | -35.1 | –
COC(=O)c1c2c(c[n+]([O-])c1C)C(=O)C=C(NCc1ccccc1)C2=O [Compound 25] | – | – | cells in sub-G1 phase (NCI-H460 cells [3]; 0.35 and 0.7 μM): slight increase in the percentage of cells in the sub-G1 phase, although not statistically significant; cell cycle profile (NCI-H460 cells [3]): increase in the G1 phase and decrease in the S phase; viability of NCI-H460 spheroids (NCI-H460 spheroids): significant decrease in the viability of the spheroids; percentage of proliferating (BrdU-incorporating) cells (NCI-H460 cells [4]): significantly reduced the percentage of NCI-H460 proliferating cells
COc1cccc2c1C(=O)c1c(O)c3c(c(O)c1C2=O)C[C@@](O)(C(=O)CO)C[C@@H]3O[C@H]1C[C@H](N)[C@H](O)[C@H](C)O1 [doxorubicin, reference compound] | – | – | cell cycle profile (NCI-H460 cells [3]): major alterations in the cell cycle profile; viability of NCI-H460 spheroids (NCI-H460 spheroids): did not significantly affect the viability of the spheroids; percentage of proliferating (BrdU-incorporating) cells (NCI-H460 cells [4]): significantly reduced the percentage of NCI-H460 proliferating cells
